Molecular target: T1, Adenosine receptor A3 (Homo sapiens, UniProt P0DMS8)
T1 sequence (P0DMS8 whole entry): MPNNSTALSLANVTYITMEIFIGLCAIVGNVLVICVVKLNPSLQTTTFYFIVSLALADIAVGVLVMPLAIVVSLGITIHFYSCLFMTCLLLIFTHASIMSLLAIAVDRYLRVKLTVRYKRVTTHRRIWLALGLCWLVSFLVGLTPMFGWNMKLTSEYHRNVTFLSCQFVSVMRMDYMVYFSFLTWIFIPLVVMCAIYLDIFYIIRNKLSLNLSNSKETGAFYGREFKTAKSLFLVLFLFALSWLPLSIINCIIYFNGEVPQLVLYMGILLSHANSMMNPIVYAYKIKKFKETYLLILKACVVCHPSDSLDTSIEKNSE
Assay: Binding Assay

- Ki: 19.9 nM
SMILES: COc1ccccc1CNc1nc(Cl)nc2c1ncn2[C@@H]1SCC(O)[C@@H]1O (stereo partly specified) [US9018371, 7]
